Assay: xn = mol fraction of the nth substance listed

CCCCCCCC[P+](CC)(CC)CC.O=[N+]([O-])c1c[n-]cn1 + COCCOCCOCCOCCOC
viscosity [mPa·s], 100 kPa
Settings	x1 = 0.599	x1 = 0.699	x1 = 0.9	x1 = 1
278.15 K	125	210	–	1270
288.15 K	–	114	–	569
298.15 K	–	–	180	–

Cn1cc[n+](CCO)c1.O=C([O-])C(F)(F)C(F)(F)C(F)(F)C(F)(F)F + O
101 kPa
Settings	electrical conductivity, 298.15 K [S/m]	viscosity, 298.15 K [mPa·s]	viscosity, 308.15 K [mPa·s]	viscosity, 318.15 K [mPa·s]
x1 = 0.01954	1.86	2.373	1.881	1.521
x1 = 0.0234	1.85	2.72	2.129	1.713
x1 = 0.02752	1.82	3.1	2.403	1.914
x1 = 0.02972	1.79	3.29	2.55	2.027
x1 = 0.03222	1.76	3.67	2.8	2.204
x1 = 0.03772	1.67	4.35	3.3	2.59
x1 = 0.04078	1.61	4.62	3.5	2.73
x1 = 0.04409	1.55	4.98	3.72	2.87
x1 = 0.05152	1.42	6.18	4.57	3.51
x1 = 0.05575	1.35	6.8	5	3.8
x1 = 0.0602	1.27	7.62	5.55	4.2
x1 = 0.06471	1.2	8.23	5.97	4.49
x1 = 0.07633	1.04	9.67	6.91	5.16
x1 = 0.082	0.97	10.72	7.6	5.62
x1 = 0.08895	0.89	12.37	8.65	6.3
x1 = 0.09727	0.81	13.43	9.39	6.84
x1 = 0.1069	0.73	15.01	10.41	7.54
x1 = 0.1275	0.6	18.85	12.87	9.24
x1 = 0.1399	0.54	22.47	15.15	10.73
x1 = 0.1574	0.465	26.8	17.82	12.47
x1 = 0.1727	0.415	29.6	19.6	13.63
x1 = 0.2189	0.309	38.1	24.8	16.97
x1 = 0.2539	0.257	43.9	28.2	19.16
x1 = 0.2952	0.213	52.2	33.1	22.22
x1 = 0.3469	0.173	64.4	40.2	26.6
x1 = 0.4176	0.134	86.6	52.8	34.3
x1 = 0.5205	0.097	131.5	77.3	48.9
x1 = 0.7217	0.053	232	129.6	78.3
x1 = 1	0.0315	713	351	190.8

Reference: the CheMixHub ionic liquid set
